27 compounds from EP4562004B1, “NOVEL 7-SUBSTITUTED INDOLE SULFONAMIDE DERIVATIVES” (F. Hoffmann-La Roche AG, priority 2022, dated 2024) can be followed below.

This experiment concerns the target human GPR17 short isoform (Homo sapiens, UniProt Q13304). Kind of experiment: GPR17 cAMP assay (antagonist mode, TR-FRET cAMP detection). Format: cell-based. The conditions noted are these: CHO-K1 cells stably expressing human GPR17 short isoform; with EC80 concentration of agonist MDL29,951, IBMX 0.5mM, forskolin 15µM; normalized to reference antagonist; read-out: hGPR17 cAMP IC50. Here is the method: CHO-K1 cells stably expressing vector containing untagged human GPR17 short isoform (Roche) were cultured at 37°C / 5% CO2 in DMEM (Dulbecco's Modified Eagle Medium):F-12 (1:1) supplemented with 10% foetal bovine serum and 400 µg/ml Geneticin.
Changes in intracellular cyclic adenosine monophosphate (cAMP) levels were quantified using the Nano-TRF Detection Assay kit (Roche Diagnostics, Cat. No. 05214386001). This assay allows for direct cAMP quantification in a homogeneous solution. cAMP is detected based on time-resolved fluorescence energy transfer (TR-FRET) and competitive binding of ruthenylated cAMP and endogenous cAMP to an anti-cAMP monoclonal antibody labeled with AlexaFluor-700. The Ruthenium complex serves as the FRET donor and transfers energy to AlexaFluor-700. The FRET signal is inversely proportional to the cAMP concentration.
CHO-GPR17S cells were detached with Accutase and resuspended in assay buffer consisting of Hank's Balanced Salt Solution (HBSS), 10mM HEPES (4-(2-hydroxyethyl) piperazine-1-ethanesulfonic acid solution) and 0.1% bovine serum albumin (pH 7.4). The cells were seeded in black 384-well plates (Corning) at a density of 10'000 cells / 20µl assay buffer until the addition of compounds.
Test antagonist compounds were serially diluted in dimethyl sulfoxide (DMSO) and spotted in 384-well plates. The compounds were then diluted in HBSS buffer supplemented with an EC80 concentration of MDL29,951 (3-(2-Carboxy-4,6-dichloroindol-3-yl)propionic acid) (GPR17 agonist) plus 3-Isobutyl-1-methylxanthine (IBMX) (0.5mM final concentration) and added to the cells at room temperature. Forskolin (15µM final concentration) was added 5 minutes after the test compounds and the cells were incubated at room temperature for 30 minutes. The assay was stopped by adding cAMP detection mix (containing detergents for cell lysis) for 90 minutes at room temperature.
Cellular cAMP was measured using a Paradigm reader (Molecular Devices). The raw data was used to calculate the FRET signal based on the assay's P-factor as per cAMP kit instructions. The data was normalized to the maximal activity of a reference antagonist and dose response curves were fitted to the percent activity of the test compounds using a sigmoidal dose response model (Genedata Screener).
Results in the hGPR17 cAMP assay are provided for compounds of formula I in Table 1 Table 1: […]

Sequence of human GPR17 short isoform (Q13304 29-367): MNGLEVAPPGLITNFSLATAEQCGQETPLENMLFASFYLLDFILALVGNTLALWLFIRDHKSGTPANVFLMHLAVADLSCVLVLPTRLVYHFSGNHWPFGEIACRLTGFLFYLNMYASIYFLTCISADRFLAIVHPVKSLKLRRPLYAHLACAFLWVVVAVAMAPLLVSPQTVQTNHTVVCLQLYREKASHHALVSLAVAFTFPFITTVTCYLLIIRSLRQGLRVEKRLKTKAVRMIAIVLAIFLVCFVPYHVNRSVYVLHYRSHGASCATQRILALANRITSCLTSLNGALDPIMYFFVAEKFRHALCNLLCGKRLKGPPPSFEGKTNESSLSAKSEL

As a reminder, the IC50 is the midpoint of a concentration-inhibition curve. With `COc1nc(NS(=O)(=O)c2c[nH]c3c(-n4nccn4)c(Br)ccc23)nc(OC)c1OCCF` [Example 28, 6-bromo-N-[5-(2-fluoroethoxy)-4,6-dimethoxy-pyrimidin-2-yl]-7-(triazol-2-yl)-1H-indole-3-sulfonamide], the IC50 stood at 27 nM.
The value for `COc1nc(NS(=O)(=O)c2c[nH]c3c(-n4ccc(F)n4)c(Cl)ccc23)nc(OC)c1OCCF` [Example 56, 6-chloro-N-[5-(2-fluoroethoxy)-4,6-dimethoxy-pyrimidin-2-yl]-7-(3-fluoropyrazol-1-yl)-1H-indole-3-sulfonamide] was 49 nM.
To `COc1nc(NS(=O)(=O)c2c[nH]c3c(-n4cccn4)c(Cl)ccc23)nc(OC)c1OCC#N` [Example 69, 6-chloro-N-[5-(cyanomethoxy)-4,6-dimethoxy-pyrimidin-2-yl]-7-pyrazol-1-yl-1H-indole-3-sulfonamide] belongs 52 nM; to `[2H]C([2H])(c1c(OC)nc(NS(=O)(=O)c2c[nH]c3c(-n4cccn4)c(Cl)ccc23)nc1OC)C(F)F` [Example 86, 6-chloro-N-[5-(1,1-dideuterio-2,2-difluoroethyl)-4,6-dimethoxy-pyrimidin-2-yl]-7-pyrazol-1-yl-1H-indole-3-sulfonamide], 44 nM; to `COc1nc(NS(=O)(=O)c2c[nH]c3c(-n4nccn4)c(F)ccc23)nc(OC)c1CC(F)F` [Example 32, N-[5-(2,2-difluoroethyl)-4,6-dimethoxy-pyrimidin-2-yl]-6-fluoro-7-(triazol-2-yl)-1H-indole-3-sulfonamide], 69 nM.
On to `COc1nc(NS(=O)(=O)c2c[nH]c3c(-n4cc(C)cn4)c(Cl)ccc23)nc(OC)c1OCC(F)F` [Example 43, 6-chloro-N-[5-(2,2-difluoroethoxy)-4,6-dimethoxy-pyrimidin-2-yl]-7-(4-methylpyrazol-1-yl)-1H-indole-3-sulfonamide], for which the IC50 was 29 nM.
To `COc1nc(NS(=O)(=O)c2c[nH]c3c(-n4nccn4)c(Cl)ccc23)nc(OC)c1CCC(F)F` [Example 17, 6-chloro-N-[5-(3,3-difluoropropyl)-4,6-dimethoxy-pyrimidin-2-yl]-7-(triazol-2-yl)-1H-indole-3-sulfonamide] belongs 24 nM.
The value for `COc1nc(NS(=O)(=O)c2c[nH]c3c(-n4nccn4)c(Br)ccc23)nc(OC)c1CC(F)F` [Example 27, 6-bromo-N-[5-(2,2-difluoroethyl)-4,6-dimethoxy-pyrimidin-2-yl]-7-(triazol-2-yl)-1H-indole-3-sulfonamide] was 19 nM.
The value for `COc1nc(NS(=O)(=O)c2c[nH]c3c(-n4ccc(F)n4)c(Cl)ccc23)nc(OC)c1OCC(F)F` [Example 53, 6-chloro-N-[5-(2,2-difluoroethoxy)-4,6-dimethoxy-pyrimidin-2-yl]-7-(3-fluoropyrazol-1-yl)-1H-indole-3-sulfonamide] was 25 nM; that for `COc1nc(NS(=O)(=O)c2c[nH]c3c(-n4cnnc4)c(Cl)ccc23)nc(OC)c1CC(F)F` [Example 10, 6-chloro-N-[5-(2,2-difluoroethyl)-4,6-dimethoxy-pyrimidin-2-yl]-7-(1,2,4-triazol-4-yl)-1H-indole-3-sulfonamide] was 100 nM.
As for `COc1nc(NS(=O)(=O)c2c[nH]c3c(-n4ncc(C)n4)c(Cl)ccc23)nc(OC)c1OCCF` [Example 39, 6-chloro-N-[5-(2-fluoroethoxy)-4,6-dimethoxy-pyrimidin-2-yl]-7-(4-methyltriazol-2-yl)-1H-indole-3-sulfonamide], the IC50 was 55 nM.
For the compound `COc1nc(NS(=O)(=O)c2c[nH]c3c(-n4nccn4)c(Cl)ccc23)nc(OC)c1CC(F)CF` (stereo not drawn) [Example 16, 6-chloro-N-[5-(2,3-difluoropropyl)-4,6-dimethoxy-pyrimidin-2-yl]-7-(triazol-2-yl)-1H-indole-3-sulfonamide], the IC50 stood at 24 nM.
For the compound `COc1nc(NS(=O)(=O)c2c[nH]c3c(-n4nccn4)c(Cl)ccc23)nc(OC)c1OC(C)(C)CF` [Example 58, 6-chloro-N-[5-(2-fluoro-1,1-dimethyl-ethoxy)-4,6-dimethoxy-pyrimidin-2-yl]-7-(triazol-2-yl)-1H-indole-3-sulfonamide], the IC50 came to 1270 nM.
The value for `COc1nc(NS(=O)(=O)c2c[nH]c3c(-n4nccn4)c(C)ccc23)nc(OC)c1OCCF` [Example 23, N-[5-(2-fluoroethoxy)-4,6-dimethoxy-pyrimidin-2-yl]-6-methyl-7-(triazol-2-yl)-1H-indole-3-sulfonamide] was 35 nM; that for `COc1nc(NS(=O)(=O)c2c[nH]c3c(-n4nccn4)c(Cl)ccc23)nc(OC)c1C1CC1C#N` (stereo not drawn) [Example 18, 6-chloro-N-[5-(2-cyanocyclopropyl)-4,6-dimethoxy-pyrimidin-2-yl]-7-(triazol-2-yl)-1H-indole-3-sulfonamide] was 25 nM.
To `[2H]C([2H])(F)C([2H])([2H])Oc1c(OC)nc(NS(=O)(=O)c2c[nH]c3c(-n4nccn4)c(Cl)ccc23)nc1OC` [Example 85, 6-chloro-N-[4,6-dimethoxy-5-(1,1,2,2-tetradeuterio-2-fluoro-ethoxy)pyrimidin-2-yl]-7-(triazol-2-yl)-1H-indole-3-sulfonamide] belongs 42 nM; to `COc1nc(NS(=O)(=O)c2c[nH]c3c(-n4ccc(C)n4)c(Cl)ccc23)nc(OC)c1OCC(F)F` [Example 44, 6-chloro-N-[5-(2,2-difluoroethoxy)-4,6-dimethoxy-pyrimidin-2-yl]-7-(3-methylpyrazol-1-yl)-1H-indole-3-sulfonamide], 23 nM; to `COc1nc(NS(=O)(=O)c2c[nH]c3c(-n4ccc(C)n4)cccc23)nc(OC)c1CC(F)F` [Example 1, N-[5-(2,2-difluoroethyl)-4,6-dimethoxy-pyrimidin-2-yl]-7-(3-methylpyrazol-1-yl)-1H-indole-3-sulfonamide], 68 nM.
To `COc1nc(NS(=O)(=O)c2c[nH]c3c(-n4nccn4)c(Cl)ccc23)nc(OC)c1OCC(F)F` [Example 9, 6-chloro-N-[5-(2,2-difluoroethoxy)-4,6-dimethoxy-pyrimidin-2-yl]-7-(triazol-2-yl)-1H-indole-3-sulfonamide] belongs 32 nM.
Regarding `COc1nc(NS(=O)(=O)c2c[nH]c3c(-n4nccn4)c(Br)ccc23)nc(OC)c1OCC(F)F` [Example 30, 6-bromo-N-[5-(2,2-difluoroethoxy)-4,6-dimethoxy-pyrimidin-2-yl]-7-(triazol-2-yl)-1H-indole-3-sulfonamide], the IC50 was 23 nM.
The value for `COc1nc(NS(=O)(=O)c2c[nH]c3c(-n4nccn4)c(C(F)F)ccc23)nc(OC)c1CC(F)F` [Example 42, N-[5-(2,2-difluoroethyl)-4,6-dimethoxy-pyrimidin-2-yl]-6-(difluoromethyl)-7-(triazol-2-yl)-1H-indole-3-sulfonamide] was 50 nM.
To `COc1nc(NS(=O)(=O)c2c[nH]c3c(-n4ccnn4)c(Cl)ccc23)nc(OC)c1CC(F)F` [Example 40, 6-chloro-N-[5-(2,2-difluoroethyl)-4,6-dimethoxy-pyrimidin-2-yl]-7-(triazol-1-yl)-1H-indole-3-sulfonamide] belongs 40 nM; to `COc1nc(NS(=O)(=O)c2c[nH]c3c(-n4nccn4)c(Cl)ccc23)nc(OC)c1OCCF` [Example 14, 6-chloro-N-[5-(2-fluoroethoxy)-4,6-dimethoxy-pyrimidin-2-yl]-7-(triazol-2-yl)-1H-indole-3-sulfonamide], 28 nM.
To `COc1nc(NS(=O)(=O)c2c[nH]c3c(-n4ncc(C)n4)c(Cl)ccc23)nc(OC)c1OCC(F)F` [Example 38, 6-chloro-N-[5-(2,2-difluoroethoxy)-4,6-dimethoxy-pyrimidin-2-yl]-7-(4-methyltriazol-2-yl)-1H-indole-3-sulfonamide] belongs 34 nM.
Take `COc1nc(NS(=O)(=O)c2c[nH]c3c(-n4nccn4)cccc23)nc(OC)c1OCC(F)F` [Example 20, N-[5-(2,2-difluoroethoxy)-4,6-dimethoxy-pyrimidin-2-yl]-7-(triazol-2-yl)-1H-indole-3-sulfonamide]: the IC50 is 447 nM.
The value for `COc1nc(NS(=O)(=O)c2c[nH]c3c(-n4nccn4)c(C(F)F)ccc23)nc(OC)c1OCC(F)F` [Example 11, N-[5-(2,2-difluoroethoxy)-4,6-dimethoxy-pyrimidin-2-yl]-6-(difluoromethyl)-7-(triazol-2-yl)-1H-indole-3-sulfonamide] was 74 nM.
To `COc1nc(NS(=O)(=O)c2c[nH]c3c(-n4cccn4)c(Cl)ccc23)nc(OC)c1OCCF` [Example 67, 6-chloro-N-[5-(2-fluoroethoxy)-4,6-dimethoxy-pyrimidin-2-yl]-7-pyrazol-1-yl-1H-indole-3-sulfonamide] belongs 31 nM.
